Like-named read-outs stand apart in the source and are kept apart here.
Tested on: T1, PinZ
T1 construct: full-length, N-terminal hexahistidine tag kept (pET-28a(+), pJM492), E. coli BL21 Star (DE3)
Experiment: steady-state kinetics, reversed-phase HPLC
Assay type: biochemical, Novosphingobium rhizosphaerae
Conditions: NADPH co-substrate, 20 mM Tris-HCl pH 7.0, 30 °C, 10 min, read-out: apparent Km

Km (racemate) [µM]	Km (~88% e.e. (+)-pinoresinol preparation) [µM]	Structure (SMILES)
27 ± 6.6	–	COc1cc(C2OCC3C(c4ccc(O)c(OC)c4)OCC23)ccc1O (racemic) [(±)-pinoresinol]
–	22.1 ± 3.2	COc1cc([C@H]2OC[C@H]3[C@@H]2CO[C@@H]3c2ccc(O)c(OC)c2)ccc1O [(+)-pinoresinol]

— article PMC12607616, “Elucidation of a bacterial pathway for catabolism of the β–β-linked dilignol pinoresinol” (mBio, 2025)
